Broadly, the MIC is the smallest concentration in the dilution series that meets the test's criterion for growth inhibition. Read a low MIC as inhibition by little substance. A word on the IC50: it is the midpoint of a concentration-inhibition curve.

Values after ≈ are worked out from the molar mass of the structure shown. Active and inactive are the calls of the source.

Data on 17 molecules can be found in ChEMBL document CHEMBL3872273, “α-Pyrone derivatives, tetra/hexahydroxanthones, and cyclodepsipeptides from two freshwater fungi” (Bioorg Med Chem, 2017).

Assay [1] relates to Staphylococcus aureus. Briefly: Antimicrobial activity against Staphylococcus aureus. The format is functional.
For assay [2], the system named is Mycolicibacterium smegmatis. Put plainly: Antimicrobial activity against Mycobacterium smegmatis. The format is functional.
In assay [3] the test system is Salmonella enterica subsp. enterica serovar Typhimurium. Briefly: (§1) Inhibition of Salmonella typhimurium Peptidyl-tRNA hydrolase assessed as reduction in peptidyl-tRNA cleavage to free tRNA by gel electrophoresis.
Assay [4] relates to Escherichia coli. Put plainly: Antimicrobial activity against Escherichia coli. The class given is functional.
For assay [5], the system named is Pseudomonas aeruginosa. Briefly: Inhibition of Pseudomonas aeruginosa Peptidyl-tRNA hydrolase assessed as reduction in peptidyl-tRNA cleavage to free tRNA by gel electrophoresis.
The test system of assay [6] is Aspergillus niger. Put plainly: Antimicrobial activity against Aspergillus niger. The format is functional.
Assay [7] deals with Escherichia coli. Put plainly: Inhibition of Escherichia coli Peptidyl-tRNA hydrolase assessed as reduction in peptidyl-tRNA cleavage to free tRNA by gel electrophoresis.
The subject of assay [8] is Candida albicans. Put plainly: Antimicrobial activity against Candida albicans. The class given is functional.
A short description of assay [9]: as §1. More on the design: species or system Salmonella enterica subsp. enterica serovar Typhimurium.

Consider `CCC[C@H]1OCc2c(OC)cc(=O)oc2[C@H]1O`, for which the MIC in assay [1] is above 145 µg/mL; in assay [2], 145 µg/mL (≈ 604 µM); in assay [4], above 145 µg/mL; in assay [6], above 145 µg/mL; in assay [8], 145 µg/mL (≈ 604 µM). The inhibition result in [3], in assay [5] and in assay [7] was “Active” throughout.
For `CCC[C@H]1Cc2oc(=O)cc(OC)c2CO1`, the MIC in assay [1] was above 203 µg/mL; in [2] it was above 203 µg/mL; in assay [4], above 203 µg/mL; in assay [6] it was 203 µg/mL (≈ 905 µM); in [8] it was above 203 µg/mL. Also, the inhibition result in [3], in assay [5] and in assay [7] was “Active” throughout.
On to `COC(=O)[C@]12Oc3ccc(-c4ccc5c(c4O)C(=O)C4=C(O)C[C@@H](C)[C@H](O)[C@@]4(C(=O)OC)O5)c(O)c3C(=O)C1=C(O)C[C@@H](C)[C@@H]2O` [SECALONIC ACID A], for which the MIC in assay [1], in assay [2], in [4], in assay [6] and in assay [8] was above 75 µg/mL throughout. The IC50 in [9] worked out at 1.4 mM. Further, the inhibition result in assay [5] and in assay [7] was “Active” throughout.
On to `CCCCC(O)c1cc(OC)c(C)c(=O)o1` (racemic), for which the MIC in assay [1], in [2], in assay [4], in assay [6] and in assay [8] was above 35 µg/mL throughout.
With `CCCC(O)Cc1oc(=O)cc(OC)c1CO` (racemic), the MIC in assay [1], in [2], in assay [4], in [6] and in assay [8] was above 55 µg/mL each time.
On to `COc1cc(=O)oc2c1CO[C@@H](CO)C2`, for which the MIC in [1], in [2], in assay [4], in assay [6] and in assay [8] was above 53 µg/mL throughout. The inhibition result in assay [3], in assay [5] and in [7] was “Active” in each case.
Consider `COc1cc(=O)oc(CO)c1C`, for which the MIC is above 25 µg/mL in [1]; 25 µg/mL (≈ 147 µM) in assay [2]; 25 µg/mL (≈ 147 µM) in assay [4]; above 25 µg/mL in assay [6]; 25 µg/mL (≈ 147 µM) in assay [8].
As for `COC(=O)[C@]12Oc3cccc(O)c3C(=O)[C@@H]1[C@H](O)C[C@@H](C)[C@@H]2O`, the MIC in assay [1] is above 100 µg/mL; in assay [2], above 100 µg/mL; in [4], above 100 µg/mL; in assay [6], above 100 µg/mL; in assay [8], 100 µg/mL (≈ 310 µM). In addition, the inhibition entry in assay [3], in assay [5] and in assay [7] was “Active” throughout.
In the case of `COC(=O)[C@]12Oc3cccc(O)c3C(=O)C1=C(O)C[C@@H](C)[C@@H]2O`, the MIC in [1], in assay [2], in [4], in assay [6] and in assay [8] was above 65 µg/mL throughout. The inhibition entry in [3], in assay [5] and in assay [7] was “Active” each time.
For the molecule `CCC[C@H]1Cc2oc(=O)cc(OC)c2[C@H](O)O1`, the minimum inhibitory concentration (MIC) in assay [1] is above 75 µg/mL; in assay [2], above 75 µg/mL; in [4] it was 75 µg/mL (≈ 312 µM); in [6], above 75 µg/mL; in assay [8] it was above 75 µg/mL.
In the case of `CC[C@H](C)[C@@H]1NC(=O)[C@H](CCC(N)=O)N(C)C(=O)[C@@H](C(C)C)N(C)C(=O)CNC(=O)[C@@H]2CCCN2C(=O)[C@H](Cc2ccccc2)NC(=O)[C@H]([C@@H](C)CC)OC(=O)[C@H](CCC(=O)O)N(C)C(=O)[C@H](C(C)C)NC(=O)[C@@H]2CCCN2C1=O`, the MIC in [1], in assay [2], in assay [4], in assay [6] and in assay [8] was above 125 µg/mL throughout.
For the molecule `COc1cc(=O)oc2c1CO[C@@H](C[C@@H](C)O)C2`, the inhibition entry in [3], in assay [5] and in assay [7] was “Active” in each case.
Take `CCCCCc1oc(=O)cc(OC)c1CO` [PYRENOCINE M]: the MIC in [1], in assay [2], in assay [4], in [6] and in [8] was above 140 µg/mL each time.
For `COc1cc(=O)oc2c1CO[C@@H](CC(C)=O)C2` [PYRENOCINE K], the minimum inhibitory concentration (MIC) in assay [1], in assay [2], in [4], in [6] and in [8] was above 25 µg/mL each time.
Turning to `COC(=O)[C@]12Oc3cccc(O)c3C(=O)[C@@H]1[C@@H](O)C[C@@H](C)[C@@H]2O`, the MIC in [1], in assay [2], in [4], in assay [6] and in [8] was above 75 µg/mL throughout.
Turning to `CC[C@H](C)[C@@H]1NC(=O)[C@H](CCC(N)=O)N(C)C(=O)[C@@H](C(C)C)N(C)C(=O)CNC(=O)[C@@H]2CCCN2C(=O)[C@H](Cc2ccccc2)NC(=O)[C@H]([C@@H](C)CC)OC(=O)[C@H](CCC(=O)O)N(C)C(=O)[C@H](C(C)C)NC(=O)[C@@H]2CCCCN2C1=O`, the MIC in [1], in assay [2], in assay [4], in assay [6] and in [8] was above 98 µg/mL in each case.
With `CCC[C@@H](O)Cc1oc(=O)cc(OC)c1C`, the MIC in assay [1], in [2], in assay [4], in assay [6] and in assay [8] was above 155 µg/mL each time.
